“Also recorded” adds a separate entry of the source. Read-outs that look alike come from different tables or passages of the source. No end group written: not given here.
Experiments:
[1] = test system: human coronary microarteries; experiment: Videomicroscopy of relaxation of pre-constricted, pressurized human coronary microarteries; assay type: cell-based; conditions: for relaxation, % of the maximum ET-1-evoked contraction: agonist alone; for relaxation in the presence of bupranolol: beta1-2-3 antagonist bupranolol; for relaxation, % of the maximum ET-1-evoked contraction, in the presence of nadolol: pre-treatment with beta1-2 antagonist nadolol; for relaxation of vessels without functional endothelium, % of the maximum KCl-evoked contraction: de-endothelialized / endothelium destroyed microarteries; for relaxation, % of the maximum KCl-evoked contraction: pre-constricted with high (50 mmol/L) KCl, functional endothelium; for relaxation of de-endothelialized vessels in the presence of nadolol: de-endothelialized microarteries
Method: Vessels were cannulated with dual glass micropipettes and secured with 10-0 nylon monofilament sutures in a Plexiglas isolated organ chamber circulated with oxygenated PSS (37° C.) and placed on an inverted microscope (Axiovert S100, Zeiss, Germany) connected to a CCD camera. Microvessels were pressurized with a PSS-filled burette manometer at 60 mmHg (a pressure chosen to avoid stretch-dependent effects typically manifested at higher pressures) in a no-flow state. Digitized imaging (IONOPTIX Corporation, Milton, Mass.) allowed continuous monitoring of vessel external diameter. All experiments were carried out in the presence of cyclooxygenase inhibitor (indomethacin, 10 μmol/L). After 30-45 min equilibration, vessels were contracted with high KCl solution (PSS, 50 mmol/L KCl replacing NaCl stoechiometrically). At the maximum of contraction, vasorelaxation with Substance P (100 nmol/L) was systematically tested to assess the presence of a functional endothelium. In some experiments, the endothelium was selectively destroyed by an air bolus. All reagents were added in the bathing solution.

[2] = test system: human coronary microarteries; experiment: Measurement of smooth muscle membrane potential of isolated human coronary microvessels; assay type: cell-based; conditions: in the presence of NO synthase and cyclooxygenase inhibition
Method: Human right atrial and left ventricular tissue specimens obtained from patients undergoing cardiac surgery were placed in physiological saline solution (PSS) containing (mmol/L): NaCl, 120; KCl, 5.9; NaHCO3, 25; dextrose, 17.5; CaCl2, 2.5; MgCl2, 1.2; NaH2PO4, 1.2 (pH 7.4) maintained at 0-4° C., and carefully dissected to isolate microarteries. Coronary microarteries (70-170 μm diameter, 1-2 mm length), rapidly cleaned of adherent connective tissue were either kept at −80° C. until homogenization or used for functional experiments.
Microvessels were mounted in an organ bath continuously circulated (6 mL/min) with oxygenated PSS at 37° C. All experiments were performed in the presence of a NO synthase inhibitor (L-w-nitroarginine, 100 μmol/L) and indomethacin (10 μmol/L). After 60 minutes of equilibration, measurement of the smooth muscle membrane potential (Em) was made with a glass microelectrode (Clark, Electromedical instruments, type GC 120F-15) filled with 1.5M KCl. The input resistance of the microelectrodes varied between 50 and 80 MΩ. Differences in electric potential were measured with a Dagan amplifier (8100, Minneapolis, Minn., U.S.A.) and recorded. Criteria for a successful impalement were (1) an abrupt drop in voltage on entry of microelectrode into the cell, (2) stable membrane potential for at least 2 min, and (3) a sharp return to zero on withdrawal of the electrode.

aortic rings = experiment: Mouse aortic ring angiogenesis (new tubes formation); assay type: cell-based; conditions: for angiogenic response in beta3 adrenoceptor deficient rings: aortic rings from beta 3-KO mice
human beta3 AR = experiment: Akt and eNOS phosphorylation in neonatal cardiac myocytes with adenoviral expression of human beta3 AR; assay type: cell-based, mouse; conditions: agonist-mediated activation, Isoproterenol+nadolol; myocytes from C57BI6 control and cardiac eNOS transgene mice
[3] = test system: cultured endothelial cells; experiment: NO release in cultured endothelial cells; assay type: cell-based; conditions: for NO release in the presence of L-NAME: 10 μM; for NO release: at 10 μM
Method: (§1) Human and rat cardiac coronary resistance microarteries (70-170μ diameter) were mounted in dual glass micropipettes chambers in no-flow state and constant pressure for vasomotion analysis by videomicroscopy. In addition, calcium transients and NO release were measured in cultured endothelial cells with an amperometric electrode and Fura-2 fluorescence, respectively. Phosphorylation of eNOS was measured in the same cells with phospho-specific antibodies.

[4] = test system: coronary microarteries from mice deficient for the beta3-adrenoceptor; experiment: Relaxation of coronary microarteries from mice deficient for the beta3-adrenoceptor; assay type: cell-based, mouse
Method: as §1, with “antibodies. […] Relaxation to Nebivolol was blunted in coronary microarteries from mice deficient for the beta3-adrenoceptor (C).” for “antibodies.”

[5] = test system: rat coronary microvessels; experiment: Videomicroscopy of relaxation of rat coronary microvessels; assay type: cell-based; conditions: for max relaxation, % of PGF2alpha pre-contracted tone: at 10 μM
Method: as §1

eNOS = eNOS Threonine 495 phosphorylation in cultured endothelial cells (phospho-specific antibodies); assay type: cell-based
Method: as §1

[6] = test system: cultured endothelial cells; experiment: Calcium transients (Ca fluorescence) in cultured endothelial cells; assay type: cell-based; conditions: for Ca signal increase after pre-treatment with nadolol: beta1-2 antagonist nadolol; for Ca signal increase after pre-treatment with bupranolol: combined beta1-2-3 antagonist bupranolol; for increase of Ca fluorescence: endothelial cells, compound alone
Method: as §1

[7] = ET-1 pre-constricted, intact endothelium
[8] = ET-1 pre-constricted, intact endothelium, listed as BRL 37344
[9] = ET-1 pre-constricted, intact endothelium, listed as isoproterenol
[10] = rat microvessels, listed as Nebivolol

Compound: C[C@H](Cc1ccc(OCC(=O)O)cc1)NC[C@H](O)c1cccc(Cl)c1 [BRL37344]
- relaxation of ET-1 preconstricted vessels under NO synthase inhibition ([1]; ET-1 pre-constricted, L-w-nitroarginine): unaffected
- relaxation, % of the maximum ET-1-evoked contraction [1, 7]: ~50%
- relaxation, % of the maximum ET-1-evoked contraction [1, 8]: 52.3±13.2%
- relaxation in the presence of bupranolol [1, 7]: blocked; also recorded: abolished
- relaxation in the presence of bupranolol [1, 8]: fully abrogated
- relaxation, % of the maximum ET-1-evoked contraction, in the presence of nadolol [1, 7]: insensitive; also recorded: resistant
- relaxation, % of the maximum ET-1-evoked contraction, in the presence of nadolol [1, 8]: 54.9±16.8%
- max relaxation, % of ET-1 pre-contracted tone ([1]; Example 2, nebivolol at 10 μM): reproduced
- relaxation of KCl-preconstricted vessels under NO synthase inhibition ([1]; KCl pre-constricted, L-w-nitroarginine 100 μmol/L): totally abrogated
- relaxation of vessels without functional endothelium, % of the maximum KCl-evoked contraction [1]: absent; also recorded: not observed; also recorded: failed to relax
- relaxation, % of the maximum KCl-evoked contraction [1]: 15.5%
- relaxation, % of the maximum KCl-evoked contraction ([1]; listed as BRL 37344): 15.5±5.3%
- smooth muscle membrane potential [2]: significant hyperpolarization

Compound: CCOC(=O)COc1ccc2c(c1)C[C@@H](NC[C@H](O)c1cccc(Cl)c1)CC2 [SR58611]
- new tubes formation compared to untreated controls (aortic rings; aortic rings from C57BI6 mice treated in vitro): time-dependent increase in new tubes formation
- angiogenic response in beta3 adrenoceptor deficient rings (aortic rings): completely lost

Compound: CC(C)NCC(O)c1ccc(O)c(O)c1 (stereo not drawn) [isoprenaline]
- phosphorylation of Akt and downstream eNOS (human beta3 AR): increased phosphorylation of Akt and downstream eNOS
- relaxation, % of the maximum ET-1-evoked contraction [1, 7]: ~50%
- relaxation, % of the maximum ET-1-evoked contraction [1, 9]: by half
- relaxation in the presence of bupranolol [1, 7]: blocked; also recorded: abolished
- relaxation in the presence of bupranolol [1, 9]: fully abrogated
- relaxation, % of the maximum ET-1-evoked contraction, in the presence of nadolol [1, 7]: insensitive; also recorded: resistant
- relaxation, % of the maximum ET-1-evoked contraction, in the presence of nadolol [1, 9]: unaffected
- relaxation of vessels without functional endothelium, % of the maximum KCl-evoked contraction [1]: 21.0±6.3%
- relaxation of de-endothelialized vessels in the presence of nadolol ([1]; nadolol, listed as Iso): abrogated
- relaxation of de-endothelialized vessels in the presence of nadolol ([1]; nadolol, listed as isoproterenol): 1.4±0.5%

Compound: OC(CNCC(O)C1CCc2cc(F)ccc2O1)C1CCc2cc(F)ccc2O1 (stereo not drawn) [nebivolol]
- NO release in the presence of L-NAME [3]: 26.5±4.3 nmoles/μg prot
- NO release in the presence of L-NAME ([3]; listed as Nebivolol): sensitive to L-Name
- NO release [3]: 117 nmol/µg protein
- NO release ([3]; listed as Nebivolol): evoked a release of NO
- relaxation in microvessels from mice genetically deficient in beta3-AR [4]: blunted
- dependence of relaxation on endothelium (Example 2) ([1]; human coronary microvessels): dependent on a functional endothelium
- relaxation under NOS inhibition (Example 2) ([1]; human coronary microvessels, NOS inhibition): sensitive to NOS inhibition
- relaxation in the presence of nadolol (Example 2) ([1]; human coronary microvessels, nadolol): insensitive
- max relaxation, % of PGF2alpha pre-contracted tone [5]: dose-dependent-relaxation
- max relaxation, % of PGF2alpha pre-contracted tone ([5]; listed as Nebivolol): 86±6%
- relaxation under NOS inhibition ([5]; rat microvessels, NOS inhibition): sensitive to NOS inhibition
- relaxation in the presence of bupranolol ([5]; rat microvessels): sensitive to bupranolol
- relaxation in the presence of bupranolol [5, 10]: prevented
- relaxation in the presence of nadolol ([5]; rat microvessels): not to nadolol
- relaxation in the presence of nadolol [5, 10]: unaffected
- phosphorylation of Threonine 495 on eNOS (eNOS): dephosphorylated
- phosphorylation of Threonine 495 on eNOS (eNOS; listed as Nebivolol): time-dependent dephosphorylation
- Ca signal increase after pre-treatment with nadolol [6]: no effect
- Ca signal increase after pre-treatment with nadolol ([6]; listed as Nebivolol): unchanged
- Ca signal increase after pre-treatment with bupranolol [6]: significantly blunted
- Ca signal increase after pre-treatment with bupranolol ([6]; listed as Nebivolol): sensitive to bupranolol
- increase of Ca fluorescence [6]: 91.8±23.7%
- increase of Ca fluorescence ([6]; listed as Nebivolol): cytosolic calcium increase

Compound: NC[C@H](O)c1ccc(O)c(O)c1 [norepinephrine]
- relaxation, % of ET-1 contraction ([1]; 1 micromol/l, intact endothelium, pretreated with nadolol and phentolamine): 41.4±7%

Compound: Substance P: endothelium-specific agonist (RPKPQQFFGLM; ends and bridges not checked; UniProt P20366 58-68, looked up)
- relaxation of vessels without functional endothelium, % of the maximum KCl-evoked contraction [1]: absence of relaxation

Compound: VEGF
- angiogenic response in beta3 adrenoceptor deficient rings (aortic rings): angiogenic response

From US20080221203A1, “Use of Agonists and Antagonists of Beta Adrenoceptors for Treating Arterial Disease” (UNIVERSITY CATHOLIQUE DE LOUVAIN, priority 2004, published 2008)
